Results: ChEMBL document CHEMBL1201862, “PubChem BioAssay data set” (2004)
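Five concentrations, 48 hours, 96-well plates. Abbreviation: GI50, concentration required for 50% inhibition of growth.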 Calls of active or inactive are those of the source. No stated cut-off is given here; in the data, active = GI50 up to about 1.1 µM and inactive = higher.

How the values were obtained:
Test in all cases: NCI tumour cell line growth inhibition, 48 h
[1] = tested on: SNB-19
[2] = tested on: HT-29
[3] = tested on: LOX IMVI
[4] = tested on: SK-OV-3
[5] = tested on: HL-60
[6] = tested on: 786-0
[7] = tested on: SK-MEL-2
[8] = tested on: SW-620
[9] = tested on: EKVX
[10] = tested on: OVCAR-3
[11] = tested on: UACC-62
[12] = tested on: SR
[13] = tested on: Malme-3M
[14] = tested on: SF-268
[15] = tested on: K562
[16] = tested on: HCT-116
[17] = tested on: NCI-H522
[18] = tested on: UACC-257
[19] = tested on: HCC 2998
[20] = tested on: OVCAR-5

Row | SMILES | GI50 [1] | GI50 [2] | GI50 [3] | GI50 [4] | GI50 [5] | GI50 [6] | GI50 [7] | GI50 [8] | GI50 [9] | GI50 [10] | GI50 [11] | GI50 [12] | GI50 [13] | GI50 [14] | GI50 [15] | GI50 [16] | GI50 [17] | GI50 [18] | GI50 [19] | GI50 [20]
1 | CCCCCCCCCCCCCCCCOCC(Cl)CP(=O)(O)OP(=O)(O)OCC1OC(n2cnc3c(N)ncnc32)C(O)C1O (stereo not given) | 60.3 µM (inactive) | > 100 µM (inactive) | > 100 µM (inactive) | > 100 µM (inactive) | > 100 µM (inactive) | > 100 µM (inactive) | > 100 µM (inactive) | > 100 µM (inactive) | > 100 µM (inactive) | > 100 µM (inactive) | > 100 µM (inactive) | > 100 µM (inactive) | > 100 µM (inactive) | > 100 µM (inactive) | > 100 µM (inactive) | 67 µM (inactive) | > 100 µM (inactive) | > 100 µM (inactive) | > 100 µM (inactive) | > 100 µM (inactive)
2 | Cc1cc2nc(C=C(C(F)(F)F)C(F)(F)F)sc2cc1C | 3.44 µM (inactive) | 0.929 µM (active) | 0.294 µM (active) | 7.62 µM (inactive) | 0.482 µM (active) | 0.316 µM (active) | 1.73 µM (inactive) | 0.957 µM (active) | 2.15 µM (inactive) | 1.16 µM (inactive) | 1.85 µM (inactive) | 0.0923 µM (active) | 1.44 µM (inactive) | 3.05 µM (inactive) | 0.0693 µM (active) | 1.1 µM (active) | 0.31 µM (active) | 4.55 µM (inactive) | 3.18 µM (inactive) | 2.59 µM (inactive)
3 | O=C1C(Cl)=C(Cl)C(=O)N1c1cccc(C(F)(F)F)c1 | > 100 µM (inactive) | > 100 µM (inactive) | > 100 µM (inactive) | > 100 µM (inactive) | > 100 µM (inactive) | > 100 µM (inactive) | > 100 µM (inactive) | > 100 µM (inactive) | > 100 µM (inactive) | > 100 µM (inactive) | > 100 µM (inactive) | 35.9 µM (inactive) | > 100 µM (inactive) | > 100 µM (inactive) | > 54.5 µM (inactive) | > 100 µM (inactive) | 12.1 µM (inactive) | > 100 µM (inactive) | > 100 µM (inactive) | > 100 µM (inactive)
4 | Cn1c(=O)c2c(nc(C[N+]3([O-])CCOCC3)n2C)n(C)c1=O | > 100 µM (inactive) | > 100 µM (inactive) | > 100 µM (inactive) | > 100 µM (inactive) | > 100 µM (inactive) | > 100 µM (inactive) | > 100 µM (inactive) | > 100 µM (inactive) | > 100 µM (inactive) | > 100 µM (inactive) | > 100 µM (inactive) | > 100 µM (inactive) | > 100 µM (inactive) | > 100 µM (inactive) | > 100 µM (inactive) | 7.98 µM (inactive) | > 100 µM (inactive) | > 100 µM (inactive) | > 100 µM (inactive) | > 100 µM (inactive)
5 | [N-]=[N+]=C1C(=O)C2CC3CC(C2)CC1C3 | > 100 µM (inactive) | > 100 µM (inactive) | > 100 µM (inactive) | > 100 µM (inactive) | > 100 µM (inactive) | > 100 µM (inactive) | > 100 µM (inactive) | 64 µM (inactive) | > 100 µM (inactive) | > 100 µM (inactive) | > 100 µM (inactive) | > 100 µM (inactive) | > 100 µM (inactive) | > 100 µM (inactive) | > 100 µM (inactive) | > 100 µM (inactive) | > 100 µM (inactive) | > 100 µM (inactive) | > 100 µM (inactive) | > 100 µM (inactive)
6 | O=c1c(O)c(-c2ccc(O)c(O)c2)oc2cc(O)ccc12 [FISETIN] | 10.7 µM (inactive) | 25.8 µM (inactive) | 13.6 µM (inactive) | 9.66 µM (inactive) | 28.7 µM (inactive) | 24.8 µM (inactive) | 8.75 µM (inactive) | 23.8 µM (inactive) | 25.4 µM (inactive) | 19.9 µM (inactive) | 10.7 µM (inactive) | 18 µM (inactive) | 20.4 µM (inactive) | 24.9 µM (inactive) | 25 µM (inactive) | 16.3 µM (inactive) | 13.6 µM (inactive) | 22.3 µM (inactive) | 18.1 µM (inactive) | 17.2 µM (inactive)
